This passage reports Dmax, DC50 and IC50 results from US12139492B2 (Endotarget Inc., priority 2021, dated 2024).

What all share (type): cell-based
One assay has as its target BTK (Homo sapiens, UniProt Q06187). Put plainly: BTK degradation, DC50 and Dmax of Table 1 (cell line not given). Also on record: endogenous in cells. The note with it: for DC50: concentration giving 50% reduction of BTK expression level.
Another assay deals with JeKo-1 cells. As to the kind of experiment: Antiproliferative effect, MTS cell viability assay, JeKo-1 cells. To be noted: Homo sapiens; JeKo-1 mantle cell lymphoma cells; read-out: IC50 (anti-proliferation) JeKO-1 cells. The method in brief: (§1)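 Absorbance at 490 nm of formazan, formed by metabolically active cells from MTS tetrazolium, served as the viability measure after a 72 h treatment across a 0.001–10 μM concentration series plus untreated control.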

The test system of the next assay is Mino cells. As to the kind of experiment: Antiproliferative effect, MTS cell viability assay, Mino cells. The note with it: Homo sapiens, MINO, Mino mantle cell lymphoma cells; read-out: IC50 (anti-proliferation) Mino cells. The method in brief:
as §1

The structures appear in SMILES notation. Bounds are passed on as bounds.

Broadly, the Dmax is the largest share of the target that was removed. Read a high Dmax as deep degradation. The term DC50 denotes the concentration at which degradation of the target reaches its halfway point. Low values mean a more potent degrader, high ones a less potent degrader.

Sequence of BTK (Q06187 whole entry): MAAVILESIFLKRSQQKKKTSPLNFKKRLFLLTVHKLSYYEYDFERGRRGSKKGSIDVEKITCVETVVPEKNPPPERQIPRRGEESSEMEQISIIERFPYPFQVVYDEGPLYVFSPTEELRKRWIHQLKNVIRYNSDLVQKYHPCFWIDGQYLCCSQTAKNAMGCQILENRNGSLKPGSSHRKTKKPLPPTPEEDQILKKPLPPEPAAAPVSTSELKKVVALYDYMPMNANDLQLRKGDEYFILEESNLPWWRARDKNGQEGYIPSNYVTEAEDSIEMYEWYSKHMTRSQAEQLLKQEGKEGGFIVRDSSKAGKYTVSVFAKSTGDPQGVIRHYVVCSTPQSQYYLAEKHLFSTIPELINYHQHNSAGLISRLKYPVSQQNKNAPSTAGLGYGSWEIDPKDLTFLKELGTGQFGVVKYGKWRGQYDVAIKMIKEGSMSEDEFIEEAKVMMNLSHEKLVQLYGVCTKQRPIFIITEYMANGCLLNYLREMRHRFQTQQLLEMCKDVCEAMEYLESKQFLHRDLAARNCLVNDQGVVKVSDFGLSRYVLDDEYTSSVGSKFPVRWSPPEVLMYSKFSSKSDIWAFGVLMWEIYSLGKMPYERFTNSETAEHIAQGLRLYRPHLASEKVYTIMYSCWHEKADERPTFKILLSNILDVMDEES

On to `Nc1ncnc2c1c(-c1ccc(Oc3ccccc3)cc1)nn2C1CCN(C(=O)N2CCC(N3CCC(c4ccc5c(c4)CN(C4CCC(=O)NC4=O)C5=O)CC3)CC2)CC1` (stereo not drawn) [Compound 84, 3-(5-(1′-(4-(4-amino-3-(4-phenoxyphenyl)-1H-pyrazolo[3,4-d]pyrimidin-1-yl)piperidine-1-carbonyl)-[1,4′-bipiperidin]-4-yl)-1-oxoisoindolin-2-yl)piperidine-2,6-dione], for which, on BTK, the Dmax was above 75% and the half-maximal degradation concentration (DC50) was above 50 nM. Also, the IC50 in the assay with JeKo-1 cells is above 10000 nM. For the same compound, the IC50 in the assay on Mino cells is above 10000 nM.
Turning to `Nc1ncnc2c1c(-c1ccc(Oc3ccccc3)cc1)nn2C1CCN(C(=O)N2CCN(CC3CCN(c4ccc5c(c4)C(=O)N(C4CCC(=O)NC4=O)C5=O)CC3)CC2)CC1` (stereo not drawn) [Compound 87, 5-(4-((4-(4-(4-amino-3-(4-phenoxyphenyl)-1H-pyrazolo[3,4-d]pyrimidin-1-yl)piperidine-1-carbonyl)piperazin-1-yl)methyl)piperidin-1-yl)-2-(2,6-dioxopiperidin-3-yl)isoindoline-1,3-dione], on BTK, the Dmax was above 90%. In addition, on BTK, the DC50 was in the range of 10 to 50 nM. Moreover, the IC50 is below 1000 nM with JeKo-1 cells and 1000 to 10000 nM in the assay with Mino cells.
The like results for `Nc1ncnc2c1c(-c1ccc(Oc3ccccc3)cc1)nn2C1CCN(C(=O)N2CCN(CC3CCN(c4ccc5c(c4)CN(C4CCC(=O)NC4=O)C5=O)CC3)CC2)CC1` (stereo not drawn) [Compound 88, 3-(5-(4-((4-(4-(4-amino-3-(4-phenoxyphenyl)-1H-pyrazolo[3,4-d]pyrimidin-1-yl)piperidine-1-carbonyl)piperazin-1-yl)methyl)piperidin-1-yl)-1-oxoisoindolin-2-yl)piperidine-2,6-dione] were, in that order, above 90%, 10 to 50 nM, below 1000 nM and below 1000 nM.
Taken in the same sequence, the figures for `Nc1ncnc2c1c(-c1ccc(Oc3ccccc3)cc1)nn2C1CCN(C(=O)N2CCC(CC3CCN(c4ccc5c(c4)C(=O)N(C4CCC(=O)NC4=O)C5=O)CC3)CC2)CC1` (stereo not drawn) [Compound 89, 5-(4-((1-(4-(4-amino-3-(4-phenoxyphenyl)-1H-pyrazolo[3,4-d]pyrimidin-1-yl)piperidine-1-carbonyl)piperidin-4-yl)methyl)piperidin-1-yl)-2-(2,6-dioxopiperidin-3-yl)isoindoline-1,3-dione] were above 90%, 10 to 50 nM, 1000 to 10000 nM and below 1000 nM.
Consider `Nc1ncnc2c1c(-c1ccc(Oc3ccccc3)cc1)nn2C1CCN(C(=O)N2CCC(CC3CCN(c4ccc5c(c4)CN(C4CCC(=O)NC4=O)C5=O)CC3)CC2)CC1` (stereo not drawn) [Compound 90, 3-(5-(4-((1-(4-(4-amino-3-(4-phenoxyphenyl)-1H-pyrazolo[3,4-d]pyrimidin-1-yl)piperidine-1-carbonyl)piperidin-4-yl)methyl)piperidin-1-yl)-1-oxoisoindolin-2-yl)piperidine-2,6-dione], for which, at BTK, the Dmax is above 90% and the DC50 was below 10 nM. The IC50 with JeKo-1 cells was in the range of 1000 to 10000 nM. The IC50 in the assay with Mino cells is 1000 to 10000 nM.
As to `Nc1ncnc2c1c(-c1ccc(Oc3ccccc3)cc1)nn2C1CCN(C(=O)N2CCC(CN3CCC(c4ccc5c(c4)C(=O)N(C4CCC(=O)NC4=O)C5=O)CC3)CC2)CC1` (stereo not drawn) [Compound 91, 5-(1-((1-(4-(4-amino-3-(4-phenoxyphenyl)-1H-pyrazolo[3,4-d]pyrimidin-1-yl)piperidine-1-carbonyl)piperidin-4-yl)methyl)piperidin-4-yl)-2-(2,6-dioxopiperidin-3-yl)isoindoline-1,3-dione], at BTK, the maximal degradation (Dmax) is above 90% and the half-maximal degradation concentration (DC50) was below 10 nM. For the same compound, the IC50 in the assay on JeKo-1 cells lay in the range of 1000 to 10000 nM. Further, in the assay with Mino cells, the IC50 lay within 1000 to 10000 nM.
At BTK, `Nc1ncnc2c1c(-c1ccc(Oc3ccccc3)cc1)nn2C1CCN(C(=O)N2CCC(CN3CCC(c4ccc5c(c4)CN(C4CCC(=O)NC4=O)C5=O)CC3)CC2)CC1` (stereo not drawn) [Compound 92, 3-(5-(1-((1-(4-(4-amino-3-(4-phenoxyphenyl)-1H-pyrazolo[3,4-d]pyrimidin-1-yl)piperidine-1-carbonyl)piperidin-4-yl)methyl)piperidin-4-yl)-1-oxoisoindolin-2-yl)piperidine-2,6-dione] yielded a Dmax above 90% and a DC50 below 10 nM. In addition, in the assay with JeKo-1 cells, the IC50 was 1000 to 10000 nM. In addition, in the assay with Mino cells, the IC50 was below 1000 nM.
The like results for `Nc1ncnc2c1c(-c1ccc(Oc3ccccc3)cc1)nn2C1CCN(C(=O)N2CCC(CCN3CCN(c4ccc5c(c4)CN(C4CCC(=O)NC4=O)C5=O)CC3)CC2)CC1` (stereo not drawn) [Compound 94, 3-(5-(4-(2-(1-(4-(4-amino-3-(4-phenoxyphenyl)-1H-pyrazolo[3,4-d]pyrimidin-1-yl)piperidine-1-carbonyl)piperidin-4-yl)ethyl)piperazin-1-yl)-1-oxoisoindolin-2-yl)piperidine-2,6-dione] were, in that order, above 90%, 10 to 50 nM, 1000 to 10000 nM and below 1000 nM.
Taken in the same sequence, the figures for `Nc1ncnc2c1c(-c1ccc(Oc3ccccc3)cc1)nn2C1CCN(C(=O)N2CCN(CCN3CCN(c4ccc5c(c4)C(=O)N(C4CCC(=O)NC4=O)C5=O)CC3)CC2)CC1` (stereo not drawn) [Compound 95, 5-(4-(2-(4-(4-(4-amino-3-(4-phenoxyphenyl)-1H-pyrazolo[3,4-d]pyrimidin-1-yl)piperidine-1-carbonyl)piperazin-1-yl)ethyl)piperazin-1-yl)-2-(2,6-dioxopiperidin-3-yl)isoindoline-1,3-dione] were above 90%, 10 to 50 nM, below 1000 nM and 1000 to 10000 nM.
Consider `Nc1ncnc2c1c(-c1ccc(Oc3ccccc3)cc1)nn2C1CCN(C(=O)N2CCN(CCN3CCN(c4ccc5c(c4)CN(C4CCC(=O)NC4=O)C5=O)CC3)CC2)CC1` (stereo not drawn) [Compound 96, 3-(5-(4-(2-(4-(4-(4-amino-3-(4-phenoxyphenyl)-1H-pyrazolo[3,4-d]pyrimidin-1-yl)piperidine-1-carbonyl)piperazin-1-yl)ethyl)piperazin-1-yl)-1-oxoisoindolin-2-yl)piperidine-2,6-dione], for which, on BTK, the maximal degradation (Dmax) is above 90% and the DC50 is 10 to 50 nM. Further, the IC50 in the assay on JeKo-1 cells lay within 1000 to 10000 nM. In the assay with Mino cells, the IC50 was 1000 to 10000 nM.
Consider `Nc1ncnc2c1c(-c1ccc(Oc3ccccc3)cc1)nn2C1CCN(C(=O)N2CCN(CCC3CCN(c4ccc5c(c4)C(=O)N(C4CCC(=O)NC4=O)C5=O)CC3)CC2)CC1` (stereo not drawn) [Compound 97, 5-(4-(2-(4-(4-(4-amino-3-(4-phenoxyphenyl)-1H-pyrazolo[3,4-d]pyrimidin-1-yl)piperidine-1-carbonyl)piperazin-1-yl)ethyl)piperidin-1-yl)-2-(2,6-dioxopiperidin-3-yl)isoindoline-1,3-dione], for which, on BTK, the greatest degradation seen (Dmax) is above 90% and the half-maximal degradation concentration (DC50) was in the range of 10 to 50 nM. The IC50 in the assay on JeKo-1 cells lay within 1000 to 10000 nM. Further, the IC50 in the assay on Mino cells was in the range of 1000 to 10000 nM.
On BTK, `Nc1ncnc2c1c(-c1ccc(Oc3ccccc3)cc1)nn2C1CCN(C(=O)N2CCN(CCC3CCN(c4ccc5c(c4)CN(C4CCC(=O)NC4=O)C5=O)CC3)CC2)CC1` (stereo not drawn) [Compound 98, 3-(5-(4-(2-(4-(4-(4-amino-3-(4-phenoxyphenyl)-1H-pyrazolo[3,4-d]pyrimidin-1-yl)piperidine-1-carbonyl)piperazin-1-yl)ethyl)piperidin-1-yl)-1-oxoisoindolin-2-yl)piperidine-2,6-dione] showed a Dmax above 90%. At BTK, this compound registered a half-maximal degradation concentration (DC50) of 10 to 50 nM. Moreover, the IC50 in the assay on JeKo-1 cells and with Mino cells was 1000 to 10000 nM in each case.
